Measured values published in US9464064B2, “HCV helicase inhibitors and methods of use thereof” (University of Kansas, priority 2011, dated 2016).

target: T1, HCV NS3 helicase NS3h_1b(con1) (Hepatitis C virus genotype 1b, UniProt Q9WMX2); assay: MBHA screen of NCI mechanistic set library at 20 μM (percent inhibition, compound interference); assay type: biochemical; settings: compounds at 20 μM, MBHA with DNA substrate; assay interference calculated with Equation 2
T1 construct: truncated C-terminally His-tagged NS3 proteins lacking the N-terminal protease, called NS3h; His-tag (C); made in house
Method in brief: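 Molecular beacon-based DNA unwinding assay; compounds screened at 20 μM in triplicate, with DMSO-only negative and 500 nM dT20 positive controls. Fluorescence (ex 643/em 670 nm) was read before and 30 min after adding ATP to 1 mM. Percent inhibition came from the change relative to DMSO controls; interference from pre-ATP fluorescence versus DMSO controls.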

T1 sequence (Q9WMX2 1192-1657): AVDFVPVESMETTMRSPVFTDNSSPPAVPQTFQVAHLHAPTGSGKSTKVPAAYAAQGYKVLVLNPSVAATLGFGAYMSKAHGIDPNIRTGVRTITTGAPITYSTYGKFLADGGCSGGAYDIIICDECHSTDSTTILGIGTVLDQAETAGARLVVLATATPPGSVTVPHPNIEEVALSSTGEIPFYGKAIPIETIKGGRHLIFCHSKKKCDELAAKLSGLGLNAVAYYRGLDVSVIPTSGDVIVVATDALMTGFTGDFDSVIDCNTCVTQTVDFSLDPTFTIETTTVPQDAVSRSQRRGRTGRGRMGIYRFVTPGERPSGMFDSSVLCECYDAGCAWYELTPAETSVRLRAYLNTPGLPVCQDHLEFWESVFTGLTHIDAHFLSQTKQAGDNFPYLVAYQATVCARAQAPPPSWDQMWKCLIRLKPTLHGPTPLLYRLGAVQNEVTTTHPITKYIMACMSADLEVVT

SMILES | Int.* (Ratio) (Interference)
Cc1ccc(CC2(OCCN(C)C)CCC(C(C)(C)C)CC2)cc1.O=C(O)/C=C/C(=O)O (stereo not drawn) [Compound 670225] | 1.04
CN(C)CCOC1(Cc2ccc(F)cc2)CCC(C(C)(C)C)CC1.O=C(O)/C=C/C(=O)O (stereo not drawn) [Compound 670226] | 1.11
CC(=O)c1sc2c(c1OC(=O)c1ccc(Cl)cc1Cl)c(=O)n(-c1ccccc1)c(=S)n2-c1ccccc1 [Compound 671136] | 0.90
N[C@@H](Cc1ccc2oc3cc(=O)c4ccccc4c-3nc2c1)C(=O)O [Compound 672425] | 0.89
COC(=O)C1CCC(=O)N1C(c1ccc(OC)cc1)c1cc(OC)c(OC)c(OC)c1 (stereo not drawn) [Compound 673622] | 1.08
Cc1cc(-c2nc3ccccc3s2)ccc1N [Compound 674495] | 0.98
COc1ccccc1[S+]([O-])Nc1ccccc1 (stereo not drawn) [Compound 676561] | 0.96
O=C(O)/C=C\C(=O)O.[N-]=[N+]=Nc1ccc2c(c1)Sc1ccccc1N2CCCCN1CCN(Cc2ccc(C(=O)c3ccccc3)cc2)CC1 [Compound 676963] | 0.46
COc1ccc(NC(=O)CC(=O)N2N=C(C)C(N=Nc3ccc(S(=O)(=O)c4ccc(N=NC5C(=O)N(C(=O)CC(=O)Nc6ccc(OC)cc6)N=C5C)cc4)cc3)C2=O)cc1 (stereo not drawn) [Compound 677392] | 1.00
COc1ccc(OC)c2nc3c(C(=O)NCCN(C)C)cccc3nc12.Cl [Compound 678917] | 0.89
CN(C)CCNC(=O)c1cccc2[nH]c(-c3ccncc3)nc12.Cl [Compound 678932] | 1.05
COC(=O)c1c[nH]c2c1-c1cc(C(=O)OCc3ccccc3)n(S(=O)(=O)c3ccc(C)cc3)c1C(=O)C2=O [Compound 679524] | 0.85
COC(=O)c1cc(-c2c[nH]cc2C(=O)OCc2ccccc2)cn1S(=O)(=O)c1ccc(C)cc1 [Compound 679527] | 0.98
Cc1cc(N(C)C)ccc1N=Nc1ccc2ncccc2c1 [Compound 680516] | 0.93
N#CC(NCc1cccc(CNC(C#N)c2ccccc2)c1)c1ccccc1 (stereo not drawn) [Compound 681730] | 0.88
CCC(C#N)(c1ccccc1)N(CCc1ccccc1)C(=O)c1ccccc1 (stereo not drawn) [Compound 681741] | 0.92
N#CC(c1ccccc1)N(CCCCCCN(C(=O)c1ccccc1)C(C#N)c1ccccc1)C(=O)c1ccccc1 (stereo not drawn) [Compound 681744] | 0.98
COc1ccc(-c2cc(-c3ccccc3)nc3c2CC(=O)Nc2ccccc2-3)cc1OC [Compound 682769] | 0.96
NC1N=C(c2ccc(Cl)cc2)C2=C(N1)c1ccccc1CC2 (stereo not drawn) [Compound 682864] | 0.97
COc1ccc2cc(CN3CCC(C4CCN(Cc5ccc6cc(OC)ccc6c5)CC4)CC3)ccc2c1.Cl [Compound 683792] | 0.93
COC(=O)C1=C(C(=O)OC)SC2(S1)C(C(=O)OC)=C(C(=O)OC)Sc1c2ssc1=O [Compound 686349] | 0.85
CC(C)[Si]1(C(C)C)OCC2OC(n3cnc4c(N)ncnc43)C(N)C2O[Si](C(C)C)(C(C)C)O1 (stereo not drawn) [Compound 687330] | 0.91
C=CC(=O)N1C/C(=C\c2ccc([N+](=O)[O-])cc2)C(=O)/C(=C/c2ccc([N+](=O)[O-])cc2)C1 [Compound 687852] | 0.94
CNC(=O)c1cc(NC(=O)N(CCC#N)CCN(C(=O)N[C@@H](Cc2ccccc2)C(=O)N[C@@H](CC(C)C)C(=O)NC)c2ccccc2)ccc1OC [Compound 688363] | 0.96
CCCCCC(/C=C/[C@@H]1CC(=O)C[C@H]1O[Si](C)(C)C(C)(C)C)OCOCCOC (stereo partly drawn) [Compound 689228] | 1.04
COc1ccc2nc3cc([N+](=O)[O-])ccc3c(NNc3ccccc3)c2c1 [Compound 689872] | 1.01
O=[N+]([O-])c1cccc2nc3ccccc3c(NCCCNc3c4ccccc4nc4cccc([N+](=O)[O-])c34)c12 [Compound 690634] | 0.82
CCOC(=O)c1ccc(-c2cc(C)no2)[nH]1 [Compound 693053] | 0.93
CON(C)C(=O)C1CCCO1 (stereo not drawn) [Compound 695218] | 0.99

same assay, conditions: compounds at 20 μM, MBHA with DNA substrate; calculated from Equation 1

SMILES | Inh. (%) (Inhibition)
Cc1ccc(CC2(OCCN(C)C)CCC(C(C)(C)C)CC2)cc1.O=C(O)/C=C/C(=O)O (stereo not drawn) [Compound 670225] | −16.0
CN(C)CCOC1(Cc2ccc(F)cc2)CCC(C(C)(C)C)CC1.O=C(O)/C=C/C(=O)O (stereo not drawn) [Compound 670226] | −2.6
CC(=O)c1sc2c(c1OC(=O)c1ccc(Cl)cc1Cl)c(=O)n(-c1ccccc1)c(=S)n2-c1ccccc1 [Compound 671136] | 1.2
N[C@@H](Cc1ccc2oc3cc(=O)c4ccccc4c-3nc2c1)C(=O)O [Compound 672425] | −11.4
COC(=O)C1CCC(=O)N1C(c1ccc(OC)cc1)c1cc(OC)c(OC)c(OC)c1 (stereo not drawn) [Compound 673622] | −9.6
Cc1cc(-c2nc3ccccc3s2)ccc1N [Compound 674495] | −7.5
COc1ccccc1[S+]([O-])Nc1ccccc1 (stereo not drawn) [Compound 676561] | 17.1
O=C(O)/C=C\C(=O)O.[N-]=[N+]=Nc1ccc2c(c1)Sc1ccccc1N2CCCCN1CCN(Cc2ccc(C(=O)c3ccccc3)cc2)CC1 [Compound 676963] | −1.7
COc1ccc(NC(=O)CC(=O)N2N=C(C)C(N=Nc3ccc(S(=O)(=O)c4ccc(N=NC5C(=O)N(C(=O)CC(=O)Nc6ccc(OC)cc6)N=C5C)cc4)cc3)C2=O)cc1 (stereo not drawn) [Compound 677392] | −18.1
COc1ccc(OC)c2nc3c(C(=O)NCCN(C)C)cccc3nc12.Cl [Compound 678917] | 28.1
CN(C)CCNC(=O)c1cccc2[nH]c(-c3ccncc3)nc12.Cl [Compound 678932] | 0.6
COC(=O)c1c[nH]c2c1-c1cc(C(=O)OCc3ccccc3)n(S(=O)(=O)c3ccc(C)cc3)c1C(=O)C2=O [Compound 679524] | −2.5
COC(=O)c1cc(-c2c[nH]cc2C(=O)OCc2ccccc2)cn1S(=O)(=O)c1ccc(C)cc1 [Compound 679527] | 1.5
Cc1cc(N(C)C)ccc1N=Nc1ccc2ncccc2c1 [Compound 680516] | −1.4
N#CC(NCc1cccc(CNC(C#N)c2ccccc2)c1)c1ccccc1 (stereo not drawn) [Compound 681730] | −2.0
CCC(C#N)(c1ccccc1)N(CCc1ccccc1)C(=O)c1ccccc1 (stereo not drawn) [Compound 681741] | −16.2
N#CC(c1ccccc1)N(CCCCCCN(C(=O)c1ccccc1)C(C#N)c1ccccc1)C(=O)c1ccccc1 (stereo not drawn) [Compound 681744] | 20.4
COc1ccc(-c2cc(-c3ccccc3)nc3c2CC(=O)Nc2ccccc2-3)cc1OC [Compound 682769] | −7.3
NC1N=C(c2ccc(Cl)cc2)C2=C(N1)c1ccccc1CC2 (stereo not drawn) [Compound 682864] | −1.8
COc1ccc2cc(CN3CCC(C4CCN(Cc5ccc6cc(OC)ccc6c5)CC4)CC3)ccc2c1.Cl [Compound 683792] | −8.0
COC(=O)C1=C(C(=O)OC)SC2(S1)C(C(=O)OC)=C(C(=O)OC)Sc1c2ssc1=O [Compound 686349] | −14.4
CC(C)[Si]1(C(C)C)OCC2OC(n3cnc4c(N)ncnc43)C(N)C2O[Si](C(C)C)(C(C)C)O1 (stereo not drawn) [Compound 687330] | −12.1
C=CC(=O)N1C/C(=C\c2ccc([N+](=O)[O-])cc2)C(=O)/C(=C/c2ccc([N+](=O)[O-])cc2)C1 [Compound 687852] | −11.6
CNC(=O)c1cc(NC(=O)N(CCC#N)CCN(C(=O)N[C@@H](Cc2ccccc2)C(=O)N[C@@H](CC(C)C)C(=O)NC)c2ccccc2)ccc1OC [Compound 688363] | −1.6
CCCCCC(/C=C/[C@@H]1CC(=O)C[C@H]1O[Si](C)(C)C(C)(C)C)OCOCCOC (stereo partly drawn) [Compound 689228] | −10.4
COc1ccc2nc3cc([N+](=O)[O-])ccc3c(NNc3ccccc3)c2c1 [Compound 689872] | −2.4
O=[N+]([O-])c1cccc2nc3ccccc3c(NCCCNc3c4ccccc4nc4cccc([N+](=O)[O-])c34)c12 [Compound 690634] | −10.3
CCOC(=O)c1ccc(-c2cc(C)no2)[nH]1 [Compound 693053] | −18.5
CON(C)C(=O)C1CCCO1 (stereo not drawn) [Compound 695218] | 13.3

same assay, conditions: compounds at 20 μM, MBHA with a DNA substrate; calculated from Equation 1

SMILES | Inh. (%) (Inhibition)
Cc1ccc(CC2(OCCN(C)C)CCC(C(C)(C)C)CC2)cc1.O=C(O)/C=C/C(=O)O (stereo not drawn) [Compound 670229] | −28.8
COc1ccc(N=C2C(=Nc3ccc(OC)cc3)N(c3ccc(N(C)C)cc3)C(=S)N2c2ccc(OC)cc2)cc1 [Compound 671394] | −5.4
NC(=O)N/N=C1\CC2C3CC4C2C4C13 (stereo not drawn) [Compound 673912] | −4.0
CCCN(CCC)C(=S)Sc1nc(C)nc(N2CCN(c3nc(C)nc(SC(=S)N(CCC)CCC)c3[N+](=O)[O-])CC2)c1[N+](=O)[O-] [Compound 675593] | −3.8
CC1=C/C(=N\OCC(=O)O)CC(c2ccc(C(C)C)cc2)C1 (stereo not drawn) [Compound 680506] | 10.2
Cl.NC1(CCNC(=O)c2ccccc2)CCN(C(=O)c2ccccc2)CC1 [Compound 680509] | −35.7
O=C1Cc2c(-c3ccccc3)cc(-c3cccc(Cl)c3)nc2-c2ccccc2N1 [Compound 684480] | −35.3
CCOC(=O)NC(Nc1ccc(F)cc1)(C(=O)OCC)C(F)(F)F (stereo not drawn) [Compound 684845] | −5.0
COc1ccc(/C=C2\CCCc3ccccc3C2=O)cc1 [Compound 687667] | −29.0
C=CC(=O)N1C/C(=C\c2ccc(Cl)cc2)C(=O)/C(=C/c2ccc(Cl)cc2)C1 [Compound 687849] | −5.2
COc1cc(OC)c2c(C)cc(=O)oc2c1 [Compound 688795] | 9.3
O=C(OCC12CC3CC(CC(C3)C1)C2)c1ccc(NCc2cc(O)ccc2O)cc1 [Compound 689857] | −22.3
C/C(=N\Nc1nc2ccccc2s1)c1ccncn1 [Compound 693632] | −26.4
CN(C)CC1CCC/C(=C\c2ccc(OC(=O)/C=C/c3ccccc3)cc2)C1=O.Cl (stereo not drawn) [Compound 697443] | 11.6
CC(=O)NC1C(OCc2ccccc2)OC(CO)C(O)C1OC(C)C(=O)NC(C(=O)NC(CCC(=O)NCCCCNc1c2ccccc2nc2cccc([N+](=O)[O-])c12)C(N)=O)C(C)C (stereo not drawn) [Compound 697468] | −23.8
CC1=C(N2CC2)C(=O)C(CO)=C(N2CC2)C1=O [Compound 697726] | −5.6

same assay, conditions: compounds at 20 μM; assay interference calculated with Equation 2 (fluorescence vs DMSO-only controls before ATP)

SMILES | Int.* (Ratio) (Interference)
Cc1ccc(CC2(OCCN(C)C)CCC(C(C)(C)C)CC2)cc1.O=C(O)/C=C/C(=O)O (stereo not drawn) [Compound 670229] | 1.17
COc1ccc(N=C2C(=Nc3ccc(OC)cc3)N(c3ccc(N(C)C)cc3)C(=S)N2c2ccc(OC)cc2)cc1 [Compound 671394] | 0.86
NC(=O)N/N=C1\CC2C3CC4C2C4C13 (stereo not drawn) [Compound 673912] | 1.04
CCCN(CCC)C(=S)Sc1nc(C)nc(N2CCN(c3nc(C)nc(SC(=S)N(CCC)CCC)c3[N+](=O)[O-])CC2)c1[N+](=O)[O-] [Compound 675593] | 1.04
CC1=C/C(=N\OCC(=O)O)CC(c2ccc(C(C)C)cc2)C1 (stereo not drawn) [Compound 680506] | 0.92
Cl.NC1(CCNC(=O)c2ccccc2)CCN(C(=O)c2ccccc2)CC1 [Compound 680509] | 0.99
O=C1Cc2c(-c3ccccc3)cc(-c3cccc(Cl)c3)nc2-c2ccccc2N1 [Compound 684480] | 1.04
CCOC(=O)NC(Nc1ccc(F)cc1)(C(=O)OCC)C(F)(F)F (stereo not drawn) [Compound 684845] | 0.91
COc1ccc(/C=C2\CCCc3ccccc3C2=O)cc1 [Compound 687667] | 1.00
C=CC(=O)N1C/C(=C\c2ccc(Cl)cc2)C(=O)/C(=C/c2ccc(Cl)cc2)C1 [Compound 687849] | 0.93
COc1cc(OC)c2c(C)cc(=O)oc2c1 [Compound 688795] | 1.02
O=C(OCC12CC3CC(CC(C3)C1)C2)c1ccc(NCc2cc(O)ccc2O)cc1 [Compound 689857] | 0.87
C/C(=N\Nc1nc2ccccc2s1)c1ccncn1 [Compound 693632] | 0.98
CN(C)CC1CCC/C(=C\c2ccc(OC(=O)/C=C/c3ccccc3)cc2)C1=O.Cl (stereo not drawn) [Compound 697443] | 1.01
CC(=O)NC1C(OCc2ccccc2)OC(CO)C(O)C1OC(C)C(=O)NC(C(=O)NC(CCC(=O)NCCCCNc1c2ccccc2nc2cccc([N+](=O)[O-])c12)C(N)=O)C(C)C (stereo not drawn) [Compound 697468] | 0.97
CC1=C(N2CC2)C(=O)C(CO)=C(N2CC2)C1=O [Compound 697726] | 0.90
